Patent publication US20130266668A1, “USE OF HEMOGLOBIN EFFECTORS TO INCREASE THE BIOAVAILABILITY OF THERAPEUTIC GASES” (VIRGINIA COMMONWEALTH UNIVERSITY, priority 2010, published 2013)
Several values for one entry are separate records, joined by “and”; a condition that tells them apart may be missing. Identical values can stand only once.

Tests used:
[1] = biological target: T1, COHb in swine whole blood (hct of 30%) (Sus scrofa, UniProt P01965+P02067); assay: Effect of RSR-13 on COHb levels of swine blood; type: biochemical; conditions: 2 mM RSR-13, after 30 minutes
T1 construct: from tissue; host or cells: swine whole blood (hct 30%, 20% or 15%)
Description: (§1) To determine whether RSR-13 will reduce COHb levels in swine blood or HBOC-1, we incubated HBOC-1 (13.4 g/dL) that has been exposed to CO to form ˜51% COHb, and swine whole blood (hct of 30%) that has been exposed to CO to form ˜52 or 10% COHb concentrations with 2 mM RSR-13. RSR-13 was able to reduce the amount of COHb by about 16% in the swine blood in the experiment starting with either 10% or 52% COHb level, and about 14% in the HBOC-1.

[2] = biological target: T2, NO derivative of cell free swine Hb (NOswHb) (Sus scrofa, UniProt P01965+P02067); assay: Effect of RSR-13 on Soret absorbance of NO derivative of cell free swine Hb; type: biochemical
T2 construct: Human hemoglobin (hHb) or swine Hb (swHb) was purified from discarded blood samples; from tissue; host or cells: purified in house from discarded swine blood samples
Description: (§2) Effect of RSR-13 on the absorption spectra in the soret region of the nitrosylated derivatives of cell free Hb from human and swine, and HBOC-1 were recorded at 37° C. using HP Agilant 8453 Spectrophotometer using 1 cm path length cuvette. Solid Na dithionite (2 mg/mL) was added to the Hb to make the fully deoxygenated Hb, followed by addition of solid diethylamine NONOate (1.3 mg/mL) to make the NOhHb or NOswHb, or NOHBOC-1 derivatives. RSR-13 (20 uM-800 uM) were added to 65 ug of the NO derivatives and the spectrum monitored in the soret region at 417 nm.

[3] = biological target: T3, NO derivative of cell free human Hb (NOhHb) (Homo sapiens, UniProt P68871+P69905); assay: Effect of RSR-13 on Soret absorbance of NO derivative of cell free human Hb; type: biochemical
T3 construct: Human hemoglobin (hHb) or swine Hb (swHb) was purified from discarded blood samples; from tissue; host or cells: purified in house from discarded human blood samples
Description: as §2

HBOC-1 (13.4 g/dL) = biological target: T4, HBOC-1 (13.4 g/dL) (Bos taurus, UniProt P01966+P02070); assay: Effect of RSR-13 on oxygen affinity of HBOC-1 (multiple-point tonometer); type: biochemical, bovine
T4 construct: is a highly purified bovine Hb that is crosslinked with gluteraldehyde; purchased BioPure Inc
Description: (§3) The effect of RSR-13 on the oxygen affinity of erythswHb and erythhHb, and HBOC-1 was determined using multiple-point tonometer. RSR-13 (1, 2 or 5 mM) was incubated with blood from swine or human (hct ˜30%) or HBOC-1 (13.4 g/dL) for 30 minutes. The Hb-compound mixture was then further incubated in IL 237 tonometers (Instrumentation Laboratories, Inc. Lexington, Mass.) for 5 minutes at 37° C. to equilibrate at oxygen tensions of 6 mmHg or 20 mmHg or 40 mmHg or 60 mmHg. Following, the sample is aspirated into an IL 1420 Automated Blood Gas Analyzer and an IL 682 Co-oximeter (Instrumentation Laboratories) or ABL 700 Blood Gas Analyzer (Radiometer, Westlake, Ohio) to determine the pH, pCO2, pO2, and Hb oxygen saturation values (SO2). The measured values of pO2 and SO2 were then subjected to a non-linear regression analysis using the program Scientist to estimate the P50 and Hill coefficient values (cooperativity of oxygen binding; n50).

[4] = biological target: T5, erythswHb/HBOC-1 solution mixture (UniProt P01965+P01966+P02067+P02070); assay: Effect of RSR-13 on oxygen affinity of erythswHb/HBOC-1 solution mixtures; type: biochemical, swine; conditions: 2 mM RSR-13
T5 construct: composed of either 15% or 20% hct whole blood in 13.4 g/dL of HBOC-1; is a highly purified bovine Hb that is crosslinked with gluteraldehyde; tissue BioPure Inc (HBOC-1 part); host or cells: swine whole blood (hct 15 or 20%) mixed with HBOC-1 (13.4 g/dL) at 75:25 or 50:50 by volume
Description: as §3
RSR-13 (2 mM) was incubated with erythswHb (hct of 15 or 20%)/HBOC-1 (13.4 g/dL) solution mixture in a volume ratio of 75:25 and 50:50 for 30 minutes. The Hb-compound mixture was then analyzed for their P50 and Hill coefficient values as described above.

[5] = biological target: T6, COHb in HBOC-1 (13.4 g/dL) (Bos taurus, UniProt P01966+P02070); assay: Effect of RSR-13 on COHb levels of HBOC-1; type: biochemical, bovine; conditions: HBOC-1 13.4 g/dL exposed to CO to ~51% COHb (control 51.1), 2 mM RSR-13, after 30 minutes
T6 construct: is a highly purified bovine Hb that is crosslinked with gluteraldehyde; purchased BioPure Inc
Description: as §1

[6] = biological target: T7, swine whole blood or erythrocyte (erythswHb) (Sus scrofa, UniProt P01965+P02067); assay: Effect of RSR-13 on oxygen affinity of swine whole blood (multiple-point tonometer); type: biochemical
T7 construct: from tissue; host or cells: swine whole blood (hct 30%, 20% or 15%)
Description: as §3, with “RSR-13 (1, 2 or 5 mM) was incubated with blood from swine or human (hct ˜30%) or HBOC-1 (13.4 g/dL) for 30 minutes.” left out

[7] = biological target: T8, NO derivative of HBOC-1 (NOHBOC-1) (Bos taurus, UniProt P01966+P02070); assay: Effect of RSR-13 on Soret absorbance of NO derivative of HBOC-1; type: biochemical, bovine
T8 construct: is a highly purified bovine Hb that is crosslinked with gluteraldehyde; purchased BioPure Inc
Description: as §2

[8] = biological target: T9, human whole blood or erythrocyte (erythhHb) (Homo sapiens, UniProt P68871+P69905); assay: Effect of RSR-13 on oxygen affinity of human whole blood (multiple-point tonometer); type: biochemical; conditions: human blood hct 30%
T9 construct: from tissue; host or cells: human whole blood (hct ~30%)
Description: as §3

whole blood = biological target: T10, whole blood (Homo sapiens, UniProt P68871+P69905); conditions: Phase I studies, doses of 75-100 mg/kg; cited from earlier work
T10 construct: host or cells: whole blood of dosed subjects

[9] = Oxygen affinity of HBOC-1 itself, without RSR-13 (multiple-point tonometer); type: biochemical, bovine; conditions: HBOC-1 13.4 g/dL alone, 0 RSR-13
Description: as §3

[10] = Blood/HBOC (50:50), swine blood hct 15%
[11] = Blood/HBOC (50:50), swine blood hct 20%
[12] = Blood/HBOC (75:25), swine blood hct 15%
[13] = Blood/HBOC (75:25), swine blood hct 20%
[14] = swine blood (100%) hct 15%, 2 mM RSR-13
[15] = swine blood (100%) hct 20%, 2 mM RSR-13
[16] = swine blood hct 30%, 1 mM RSR-13
[17] = swine blood hct 30%, 2 mM RSR-13
[18] = swine blood hct 30%, 5 mM RSR-13

T8 sequence (P01966 2-142 limits assumed): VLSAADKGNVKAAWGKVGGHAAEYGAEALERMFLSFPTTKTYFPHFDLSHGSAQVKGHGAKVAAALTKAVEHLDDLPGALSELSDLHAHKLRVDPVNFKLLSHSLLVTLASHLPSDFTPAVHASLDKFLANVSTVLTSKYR
T8 sequence (P02070 whole entry): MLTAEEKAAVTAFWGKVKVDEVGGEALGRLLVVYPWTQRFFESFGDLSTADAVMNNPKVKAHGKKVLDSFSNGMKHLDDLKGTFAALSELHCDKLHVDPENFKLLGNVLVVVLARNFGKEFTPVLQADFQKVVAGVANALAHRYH
T4 sequence (P01966 2-142 limits assumed): as the sequence (P01966 2-142 limits assumed) above
T4 sequence (P02070 whole entry): as the sequence (P02070 whole entry) above
T2 sequence (P01965 whole entry): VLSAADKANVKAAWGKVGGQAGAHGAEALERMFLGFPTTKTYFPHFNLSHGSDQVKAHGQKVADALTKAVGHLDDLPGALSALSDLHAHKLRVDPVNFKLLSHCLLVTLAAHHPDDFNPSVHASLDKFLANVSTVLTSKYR
T2 sequence (P02067 2-147 limits assumed): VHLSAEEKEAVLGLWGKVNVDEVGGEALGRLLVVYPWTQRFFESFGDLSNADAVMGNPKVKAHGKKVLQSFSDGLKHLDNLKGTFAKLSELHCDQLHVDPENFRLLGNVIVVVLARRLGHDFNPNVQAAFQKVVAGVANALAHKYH
T5 sequence (P01965 whole entry): as the sequence (P01965 whole entry) above
T5 sequence (P02067 whole entry): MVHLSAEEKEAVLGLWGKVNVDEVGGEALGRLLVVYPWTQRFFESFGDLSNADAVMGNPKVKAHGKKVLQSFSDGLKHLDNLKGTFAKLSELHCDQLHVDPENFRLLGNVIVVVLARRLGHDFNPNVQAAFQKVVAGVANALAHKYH
T5 sequence (P01966 2-142 limits assumed): as the sequence (P01966 2-142 limits assumed) above
T5 sequence (P02070 whole entry): as the sequence (P02070 whole entry) above
T3 sequence (P69905 2-142 limits assumed): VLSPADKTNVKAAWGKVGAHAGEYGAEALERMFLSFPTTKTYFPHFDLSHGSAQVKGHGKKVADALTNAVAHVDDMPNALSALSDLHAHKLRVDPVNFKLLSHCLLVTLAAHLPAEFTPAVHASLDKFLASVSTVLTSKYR
T3 sequence (P68871 2-147 limits assumed): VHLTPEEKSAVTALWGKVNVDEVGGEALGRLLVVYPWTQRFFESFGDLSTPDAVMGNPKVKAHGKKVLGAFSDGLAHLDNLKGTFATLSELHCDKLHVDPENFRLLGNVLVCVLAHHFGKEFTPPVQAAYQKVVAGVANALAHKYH
T1 sequence (P01965 whole entry): as the sequence (P01965 whole entry) above
T1 sequence (P02067 2-147 limits assumed): as the sequence (P02067 2-147 limits assumed) above
T6 sequence (P01966 2-142 limits assumed): as the sequence (P01966 2-142 limits assumed) above
T6 sequence (P02070 whole entry): as the sequence (P02070 whole entry) above
T10 sequence (P69905 2-142 limits assumed): as the sequence (P69905 2-142 limits assumed) above
T10 sequence (P68871 2-147 limits assumed): as the sequence (P68871 2-147 limits assumed) above

With `Cc1cc(C)cc(NC(=O)Cc2ccc(OC(C)(C)C(=O)O)cc2)c1` [RSR-13, 2-[4-[2-[(3,5-dimethylphenyl)amino]-2-oxoethyl]phenoxy]-2-methylpropanoic acid] as the molecule, how does the COHb levels ([1]; swine blood hct 30% exposed to CO to ~10% COHb (control 10.2)) read?
Its COHb levels is 8.5 ± 0.3%.

And the COHb levels ([1]; swine blood hct 30% exposed to CO to ~52% COHb (control 52.4))?
The COHb levels was 44.2 ± 1.0%.

And the “Percentage (%) decrease in absorbance intensity at 417 nm” value (“Percentage (%) decrease” below) ([2]; 20 uM RSR-13)?
The value was 3.3 ± 0.4%.

And the “Percentage (%) decrease” value ([2]; 100 uM RSR-13)?
The value was 7.9 ± 0.4%.

And the “Percentage (%) decrease” value ([2]; 200 uM RSR-13)?
Its value is 14.9 ± 0.3%.

What about the “Percentage (%) decrease” value ([2]; 300 uM RSR-13) of the same molecule?
Its value is 17.1 ± 0.5%.

And the “Percentage (%) decrease” value ([3]; 20 uM RSR-13)?
Its value is 3.2 ± 0.4%.

What about the “Percentage (%) decrease” value ([3]; 100 uM RSR-13) of the same molecule?
The value was 8.9 ± 0.3%.

And the “Percentage (%) decrease” value ([3]; 200 uM RSR-13)?
The value was 13.2 ± 0.3%.

And the “Percentage (%) decrease” value ([3]; 300 uM RSR-13)?
The value was 16.5 ± 0.4%.

And the P50 (HBOC-1 (13.4 g/dL); 2 mM RSR-13)?
The P50 was 73.6 ± 3.0 mmHg.

What about the n50 (HBOC-1 (13.4 g/dL); 2 mM RSR-13) of the same molecule?
Its n50 is 1.1 ± 0.3.

And the ΔP50 (HBOC-1 (13.4 g/dL); 2 mM RSR-13)?
Its ΔP50 is 15.1 mmHg.

What about the P50 (HBOC-1 (13.4 g/dL); 5 mM RSR-13) of the same molecule?
Its P50 is 83.5 ± 3.4 mmHg.

And the n50 (HBOC-1 (13.4 g/dL); 5 mM RSR-13)?
Its n50 is 1.1 ± 0.3.

What about the ΔP50 (HBOC-1 (13.4 g/dL); 5 mM RSR-13) of the same molecule?
The ΔP50 was 25 mmHg and 25.0 mmHg.

And the P50 [4, 10]?
The P50 was 74.0 ± 2.1 mmHg.

And the n50 [4, 10]?
The n50 was 1.5 ± 0.1.

And the ΔP50 [4, 10]?
Its ΔP50 is 21.2 mmHg.

What about the P50 [4, 11] of the same molecule?
Its P50 is 68.0 ± 4.2 mmHg.

What about the n50 [4, 11] of the same molecule?
The n50 was 1.8 ± 0.3.

And the ΔP50 [4, 11]?
The ΔP50 was 20.5 mmHg.

And the P50 [4, 12]?
Its P50 is 75.1 ± 5.6 mmHg.

What about the n50 [4, 12] of the same molecule?
Its n50 is 1.7 ± 0.1.

What about the ΔP50 [4, 12] of the same molecule?
The ΔP50 was 27.6 mmHg.

What about the P50 [4, 13] of the same molecule?
Its P50 is 61.5 ± 3.6 mmHg.

And the n50 [4, 13]?
The n50 was 2.1 ± 0.1.

What about the ΔP50 [4, 13] of the same molecule?
The ΔP50 was 18.1 mmHg.

And the COHb levels [5]?
The COHb levels was 44.1 ± 0.7%.

And the P50 [6, 14]?
Its P50 is 62.3 ± 0.5 mmHg.

What about the n50 [6, 14] of the same molecule?
The n50 was 2.2 ± 0.2.

And the ΔP50 [6, 14]?
Its ΔP50 is 25.0 mmHg.

And the P50 [6, 15]?
The P50 was 51.3 ± 3.2 mmHg.

What about the n50 [6, 15] of the same molecule?
Its n50 is 2.2 ± 0.1.

What about the ΔP50 [6, 15] of the same molecule?
Its ΔP50 is 16.8 mmHg.

And the P50 [6, 16]?
The P50 was 34.5 ± 0.2 mmHg.

What about the n50 [6, 16] of the same molecule?
The n50 was 2.6 ± 0.3.

And the ΔP50 [6, 16]?
Its ΔP50 is 3.9 mmHg.

And the P50 [6, 17]?
The P50 was 41.5 ± 0.5 mmHg.

What about the n50 [6, 17] of the same molecule?
Its n50 is 2.3 ± 0.0.

And the ΔP50 [6, 17]?
The ΔP50 was 11.3 mmHg.

What about the P50 [6, 18] of the same molecule?
Its P50 is 72.1 ± 1.3 mmHg.

And the n50 [6, 18]?
The n50 was 1.9 ± 0.1.

What about the ΔP50 [6, 18] of the same molecule?
The ΔP50 was 41.5 mmHg.

And the “Percentage (%) decrease” value ([7]; 100 uM RSR-13)?
The value was 4.7 ± 0.2%.

What about the “Percentage (%) decrease” value ([7]; 200 uM RSR-13) of the same molecule?
Its value is 6.1 ± 0.3%.

And the “Percentage (%) decrease” value ([7]; 300 uM RSR-13)?
The value was 7.8 ± 0.5%.

And the “Percentage (%) decrease” value ([7]; 800 uM RSR-13)?
The value was 15.5 ± 0.5%.

What about the P50 ([8]; 1 mM RSR-13) of the same molecule?
The P50 was 35.1 ± 2.2 mmHg.

What about the n50 ([8]; 1 mM RSR-13) of the same molecule?
Its n50 is 2.4 ± 0.2.

What about the ΔP50 ([8]; 1 mM RSR-13) of the same molecule?
Its ΔP50 is 3.3 mmHg.

And the P50 ([8]; 2 mM RSR-13)?
The P50 was 42.0 ± 1.7 mmHg.

And the n50 ([8]; 2 mM RSR-13)?
Its n50 is 2.0 ± 0.3.

What about the ΔP50 ([8]; 2 mM RSR-13) of the same molecule?
The ΔP50 was 10.2 mmHg.

And the P50 ([8]; 5 mM RSR-13)?
The P50 was 78.0 ± 1.2 mmHg.

And the n50 ([8]; 5 mM RSR-13)?
Its n50 is 1.8 ± 0.1.

What about the ΔP50 ([8]; 5 mM RSR-13) of the same molecule?
Its ΔP50 is 46.2 mmHg.

What about the “increase of the P50 of whole blood” value (whole blood) of the same molecule?
Its value is 10 Torr.

With “HBOC-1: Oxyglobin® from BioPure Inc: highly purified bovine Hb that is crosslinked with gluteraldehyde” as the molecule, how does the P50 [9] read?
Its P50 is 58.5 mmHg and 58.5 ± 6.9 mmHg.

And the n50 [9]?
The n50 was 1.2 and 1.2 ± 0.3.
